What was measured:
Assay type in all cases: cell-based
KCNQ2 mutant L197G = biological target: T1, KCNQ2 mutant L197G (Homo sapiens, UniProt O43526, L197G); assay: KCNQ2 S4 mutant L197G; conditions: 25 μM NH29 (25 M [sic])
T1 construct: expressed in transfected cells
Text: (§1) FIGS. 12A-F present the potentiating effect of NH29, an exemplary channel opener compound according to embodiments of the present invention, on selected KCNQ2 mutants. Shown are bar diagrams comparing the potentiating effect of NH29 on native KCNQ2 and KCNQ2 mutants, wherein the mutated amino acids are located at the S1-S2 helix region (FIG. 12A) or S4 helix region (FIG. 12D) and wherein the opener effect is expressed as percent of the control current in the absence of the opener. For comparison, marked as a green line, is the observed current increase of native KCNQ2 by NH29. FIGS. 12B 12C, 12E and 12F present representative traces recorded from CHO cell transfected with the KCNQ2 mutant S122A, S121A, L206C and R201A respectively, before and after external application of 25 μM of NH29 and wherein the membrane potential was stepped from −90 mV holding potential to −40 mV for 1.5 seconds pulse duration.
(§2) Voltage-clamp recordings in CHO cells were performed, using the whole-cell configuration of the patch-clamp technique. Signals were amplified using an Axopatch 200B patch-clamp amplifier (Molecular Devices, Sunnyvale, Calif.), sampled at 2 kHz and filtered at 800 Hz via a 4-pole Bessel low pass filter. […] Series resistances (3-13 MΩ) were compensated (75-90%) and periodically monitored.

Kv7.2 = biological target: T2, Kv7.2 (Homo sapiens, UniProt O43526); assay: Kv channel selectivity, Xenopus oocytes: Kv7.2; conditions: −40 mV
T2 construct: expressed in transfected cells; host or cells: Xenopus oocytes
T2 sequence (O43526 whole entry): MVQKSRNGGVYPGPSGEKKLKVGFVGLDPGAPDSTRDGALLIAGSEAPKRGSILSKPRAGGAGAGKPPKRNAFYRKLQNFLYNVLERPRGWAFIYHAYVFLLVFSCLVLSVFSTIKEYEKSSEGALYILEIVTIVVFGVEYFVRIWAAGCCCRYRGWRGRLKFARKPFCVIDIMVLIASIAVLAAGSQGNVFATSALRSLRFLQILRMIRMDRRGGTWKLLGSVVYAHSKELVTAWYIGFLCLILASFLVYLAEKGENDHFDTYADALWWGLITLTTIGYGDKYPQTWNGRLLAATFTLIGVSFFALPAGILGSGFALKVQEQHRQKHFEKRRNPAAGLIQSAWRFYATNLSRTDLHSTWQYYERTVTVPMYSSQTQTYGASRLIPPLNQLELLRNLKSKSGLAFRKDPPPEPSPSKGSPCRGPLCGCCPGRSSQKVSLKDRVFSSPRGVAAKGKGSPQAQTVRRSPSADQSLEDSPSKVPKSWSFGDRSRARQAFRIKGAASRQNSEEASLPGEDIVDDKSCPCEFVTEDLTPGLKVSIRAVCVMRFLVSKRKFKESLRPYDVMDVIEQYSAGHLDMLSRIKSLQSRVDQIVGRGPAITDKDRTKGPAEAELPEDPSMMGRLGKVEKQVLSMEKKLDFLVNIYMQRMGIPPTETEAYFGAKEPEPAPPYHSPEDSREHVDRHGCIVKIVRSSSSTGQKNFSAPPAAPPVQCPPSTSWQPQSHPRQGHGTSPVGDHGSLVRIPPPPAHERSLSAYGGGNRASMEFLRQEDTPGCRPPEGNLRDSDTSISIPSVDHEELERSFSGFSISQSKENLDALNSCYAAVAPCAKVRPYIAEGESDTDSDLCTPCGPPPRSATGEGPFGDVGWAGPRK
Method: (§3) Voltage-clamp measurements in Xenopus oocytes were performed as previously described.
(§4) The selectivity of NH29 on other relevant Kv channels expressed in Xenopus oocytes was also studied, and the results are summarized in Table 3 below. The specificity of NH29 at 25 μM and 50 μM towards various Kv channels was tested in Xenopus oocytes, except for Kv1.2 which was checked in transfected CHO cells. The current amplitude of the various Kv channels was tested at the indicated voltages and the effect of the drugs was expressed as fold of the control amplitude measured under the same conditions in the absence of the drug. The data in Table 3 are expressed as mean±SEM of 5-7 separate experiments.

Kv11.1 or Herg = biological target: T3, Kv11.1 or Herg (Homo sapiens, UniProt Q12809); assay: Kv channel selectivity, Xenopus oocytes: Kv11.1; conditions: 25 μM, −10 mV
T3 construct: expressed in transfected cells; host or cells: Xenopus oocytes
T3 sequence (Q12809 whole entry): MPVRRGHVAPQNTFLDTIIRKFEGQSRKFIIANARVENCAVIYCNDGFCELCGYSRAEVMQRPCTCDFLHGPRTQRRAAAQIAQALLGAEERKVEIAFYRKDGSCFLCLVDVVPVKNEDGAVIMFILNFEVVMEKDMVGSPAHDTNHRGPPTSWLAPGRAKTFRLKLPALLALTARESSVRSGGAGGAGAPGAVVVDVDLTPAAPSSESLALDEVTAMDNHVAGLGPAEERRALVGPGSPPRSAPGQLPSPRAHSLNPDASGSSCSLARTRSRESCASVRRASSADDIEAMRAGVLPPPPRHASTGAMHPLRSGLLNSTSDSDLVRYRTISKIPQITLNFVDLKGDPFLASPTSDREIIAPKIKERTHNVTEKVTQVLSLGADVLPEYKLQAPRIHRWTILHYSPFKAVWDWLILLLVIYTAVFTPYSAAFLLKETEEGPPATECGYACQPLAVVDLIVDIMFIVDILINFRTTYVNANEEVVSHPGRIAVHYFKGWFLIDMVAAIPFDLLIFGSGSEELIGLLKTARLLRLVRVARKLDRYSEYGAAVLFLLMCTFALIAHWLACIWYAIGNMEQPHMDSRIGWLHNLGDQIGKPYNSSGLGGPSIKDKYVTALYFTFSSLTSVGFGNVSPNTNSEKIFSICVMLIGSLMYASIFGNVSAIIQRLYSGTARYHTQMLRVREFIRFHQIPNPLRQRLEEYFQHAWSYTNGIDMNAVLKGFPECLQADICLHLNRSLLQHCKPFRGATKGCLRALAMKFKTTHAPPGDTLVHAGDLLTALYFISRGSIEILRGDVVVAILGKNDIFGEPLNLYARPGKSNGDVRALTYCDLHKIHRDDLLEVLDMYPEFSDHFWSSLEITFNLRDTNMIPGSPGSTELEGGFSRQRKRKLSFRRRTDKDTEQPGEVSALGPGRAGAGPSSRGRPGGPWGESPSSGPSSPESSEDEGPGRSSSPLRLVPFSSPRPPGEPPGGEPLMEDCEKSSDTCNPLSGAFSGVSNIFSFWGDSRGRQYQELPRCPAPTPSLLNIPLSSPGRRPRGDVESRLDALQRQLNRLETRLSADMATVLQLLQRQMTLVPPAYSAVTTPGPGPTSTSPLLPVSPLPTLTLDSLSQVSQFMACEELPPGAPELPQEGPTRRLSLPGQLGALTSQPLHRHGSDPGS
Method: as §3, §4

KCNQ2 mutant R214W = biological target: T4, KCNQ2 mutant R214W (Homo sapiens, UniProt O43526, R214W); assay: KCNQ2 S4 mutant R214W; conditions: NH29; to a lesser extent
T4 construct: expressed in transfected cells; host or cells: CHO cells
T4 sequence (O43526 whole entry R214W): as the sequence (O43526 whole entry) above, with R214W counted along it
Text: as §1, §2

KCNQ2 mutant R201A = biological target: T5, KCNQ2 mutant R201A (Homo sapiens, UniProt O43526, R201A); assay: KCNQ2 S4 mutant R201A in CHO cells; conditions: 25 μM NH29 (25 M [sic])
T5 construct: expressed in transfected cells; host or cells: CHO cells
T5 sequence (O43526 whole entry R201A): as the sequence (O43526 whole entry) above, with R201A counted along it
Text: as §1, §2

homomeric KCNQ3 channels = biological target: T6, homomeric KCNQ3 channels (Homo sapiens, UniProt O43525); assay: Homomeric KCNQ3 channels; conditions: 25 μM; very small currents through homomeric KCNQ3
T6 construct: expressed in transfected cells
T6 sequence (O43525 whole entry): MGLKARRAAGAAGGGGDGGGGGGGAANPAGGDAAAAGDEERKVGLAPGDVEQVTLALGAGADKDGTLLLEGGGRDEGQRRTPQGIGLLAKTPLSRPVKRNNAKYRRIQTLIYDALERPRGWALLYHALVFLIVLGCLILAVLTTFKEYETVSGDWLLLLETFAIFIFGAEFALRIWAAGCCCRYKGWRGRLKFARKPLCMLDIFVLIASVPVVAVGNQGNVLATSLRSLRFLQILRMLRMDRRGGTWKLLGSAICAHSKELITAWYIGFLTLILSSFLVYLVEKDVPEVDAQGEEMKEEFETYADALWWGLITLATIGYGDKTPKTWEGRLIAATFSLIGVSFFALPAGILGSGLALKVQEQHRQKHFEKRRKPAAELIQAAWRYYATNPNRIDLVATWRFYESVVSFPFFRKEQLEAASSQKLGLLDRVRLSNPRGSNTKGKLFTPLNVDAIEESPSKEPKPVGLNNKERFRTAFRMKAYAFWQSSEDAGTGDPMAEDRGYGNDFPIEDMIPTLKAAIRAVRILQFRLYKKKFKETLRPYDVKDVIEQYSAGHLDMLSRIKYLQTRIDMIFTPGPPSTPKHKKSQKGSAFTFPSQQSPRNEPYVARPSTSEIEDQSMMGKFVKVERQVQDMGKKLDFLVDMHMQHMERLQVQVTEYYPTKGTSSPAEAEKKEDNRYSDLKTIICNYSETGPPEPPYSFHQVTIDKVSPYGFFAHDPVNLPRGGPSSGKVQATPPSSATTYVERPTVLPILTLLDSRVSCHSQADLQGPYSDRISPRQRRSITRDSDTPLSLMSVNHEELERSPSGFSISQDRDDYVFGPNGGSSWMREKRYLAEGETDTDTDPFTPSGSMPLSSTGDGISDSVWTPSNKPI
Method: FIG. 8 presents a bar-graph comparing the potentiating effect of 25 μM of Compound NH29 on various KCNQ subunits and mutants, wherein the opener effect is expressed as percent of the control current in the absence of the opener;
FIG. 8 presents a bar-graph comparing the potentiating effect of 25 μM of Compound NH29 on various KCNQ subunits and mutants, wherein the opener effect is expressed as percent of the control current in the absence of the opener.

Kv7.3 mutant A315T = biological target: T7, Kv7.3 mutant A315T (Homo sapiens, UniProt O43525, A315T); assay: Activation of Kv7.3 mutant A315T
T7 construct: expressed in transfected cells
T7 sequence (O43525 whole entry A315T): as the sequence (O43525 whole entry) above, with A315T counted along it
Text: Among the Kv7 channel family, NH29 appeared to act as an opener of Kv7.2 but not of Kv7.1 and Kv7.4.

Kv 7.1 = biological target: T8, Kv 7.1 (Homo sapiens, UniProt P51787); assay: Kv channel selectivity, Xenopus oocytes: Kv7.1; conditions: for Fold current amplitude: +30 mV, Xenopus oocytes
T8 construct: expressed in transfected cells; host or cells: Xenopus oocytes
T8 sequence (P51787 whole entry): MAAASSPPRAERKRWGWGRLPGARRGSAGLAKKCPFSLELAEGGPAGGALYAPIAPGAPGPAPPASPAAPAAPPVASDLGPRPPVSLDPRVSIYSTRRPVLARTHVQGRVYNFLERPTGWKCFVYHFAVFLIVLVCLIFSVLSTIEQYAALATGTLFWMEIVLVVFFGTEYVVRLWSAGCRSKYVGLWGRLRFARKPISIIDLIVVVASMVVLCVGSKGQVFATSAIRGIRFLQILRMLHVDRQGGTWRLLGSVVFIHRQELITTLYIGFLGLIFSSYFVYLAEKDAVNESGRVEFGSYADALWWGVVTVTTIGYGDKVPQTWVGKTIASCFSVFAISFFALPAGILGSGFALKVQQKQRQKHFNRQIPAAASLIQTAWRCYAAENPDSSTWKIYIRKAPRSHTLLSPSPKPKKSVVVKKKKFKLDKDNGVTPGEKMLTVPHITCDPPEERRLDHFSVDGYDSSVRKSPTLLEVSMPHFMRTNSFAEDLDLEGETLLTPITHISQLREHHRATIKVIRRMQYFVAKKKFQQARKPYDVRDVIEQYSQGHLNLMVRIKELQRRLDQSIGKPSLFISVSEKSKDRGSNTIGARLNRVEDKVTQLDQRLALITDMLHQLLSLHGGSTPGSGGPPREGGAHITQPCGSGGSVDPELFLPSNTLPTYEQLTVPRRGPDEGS
Method: as §3, §4

T1 sequence (O43526 whole entry L197G): as the sequence (O43526 whole entry) above, with L197G counted along it

O=C(Cc1cc([N+](=O)[O-])cc([N+](=O)[O-])c1Nc1c(Cl)cc([N+](=O)[O-])cc1Cl)NCCO [NH29]
fold enhancement of current (KCNQ2 mutant L197G): 1.5 fold
Fold current amplitude (Kv7.2; 25 μM): 3.5 ± 0.4 fold
Fold current amplitude (Kv7.2; 50 μM): 6.8 ± 0.7 fold
Fold current amplitude (Kv11.1 or Herg): 1.1 ± 0.02 fold
sensitivity to the activating effect compared to wild-type Kv7.2 (KCNQ2 mutant R214W): significantly less sensitive
fold enhancement of current (KCNQ2 mutant R201A): 1.2 fold
opening activity on homomeric KCNQ3 channels (homomeric KCNQ3 channels): no opening activity was detected
activation of Kv7.3 mutant A315T (Kv7.3 mutant A315T): could also activate Kv7.3
Fold current amplitude (Kv 7.1; 25 μM): 0.93 ± 0.02 fold
Fold current amplitude (Kv 7.1; 50 μM): 0.72 ± 0.02 fold
inhibition at 50 µM (Kv 7.1; 50 μM, read-out: inhibition of Kv7.1 current): 23%

Source: patent publication US9403756B2, “N-phenyl anthranilic acid derivatives and uses thereof” (Ramot at Tel-Aviv University Ltd., priority 2007, dated 2016)
